In brackets after ≈: the same amount, converted by molar mass.
What was measured:
Assay in all cases: in vitro antibacterial evaluation, MIC by broth dilution
Assay type in all cases: cell-based
Enterococcus sp. = settings: broth dilution, 18 hours at 35° C.
Method in brief: (§1)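 Broth dilution per NCCLS M7-A2 in Mueller-Hinton II medium, inoculum 5×10^5 CFU/mL, antibiotic range 64-0.06 μg/mL. MIC taken as lowest concentration inhibiting growth; Gram-positive panel includes recent clinical isolates resistant to methicillin, penicillin and/or vancomycin.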

Escherichia coli = settings: 18 hours at 35° C.
Method in brief: as §1

Staphylococcus sp. = settings: broth dilution, 18 hours at 35° C.
Method in brief: as §1

Streptococcus sp. = settings: broth dilution, 18 hours at 35° C.
Method in brief: as §1

CC(c1ccccc1)C1NC(=O)CNC(=O)C(CO)NC(=O)C(C(O)C2CNC(=N)N2C2OC(CO)C(O)C(O)C2O)NC(=O)C(C(O)C2CNC(=N)N2)NC(=O)C(Cc2ccc(OC3OC(CO)C(OC4OC5COC(CC6CCCCC6)OC5C(O)C4O)C(O)C3O)cc2)NC1=O (stereo not shown) [Example 122]
MIC Enterococcus avium (GC 4558) (Enterococcus sp.; Enterococcus avium (GC 4558)): 2 µg/mL (≈ 1.43 µM)
MIC Enterococcus faecalis (ATCC 29212) (Enterococcus sp.; Enterococcus faecalis (ATCC 29212)): 2 µg/mL (≈ 1.43 µM)
MIC Enterococcus faecalis (GC 2242) (Enterococcus sp.; Enterococcus faecalis (GC 2242)): 2 µg/mL (≈ 1.43 µM)
MIC Enterococcus faecalis (GC 2691) (Enterococcus sp.; Enterococcus faecalis (GC 2691)): 2 µg/mL (≈ 1.43 µM)
MIC Enterococcus faecalis (GC 3059) (Enterococcus sp.; Enterococcus faecalis (GC 3059)): 2 µg/mL (≈ 1.43 µM)
MIC Enterococcus faecalis (GC 4552) (Enterococcus sp.; Enterococcus faecalis (GC 4552)): 2 µg/mL (≈ 1.43 µM)
MIC Enterococcus faecalis (GC 4553) (Enterococcus sp.; Enterococcus faecalis (GC 4553)): 4 µg/mL (≈ 2.85 µM)
MIC Enterococcus faecalis (GC 4554) (Enterococcus sp.; Enterococcus faecalis (GC 4554)): 2 µg/mL (≈ 1.43 µM)
MIC Enterococcus faecalis (GC 6189) (Enterococcus sp.; Enterococcus faecalis (GC 6189)): 2 µg/mL (≈ 1.43 µM)
MIC Enterococcus faecium (GC 2243) (Enterococcus sp.; Enterococcus faecium (GC 2243)): 2 µg/mL (≈ 1.43 µM)
MIC Enterococcus faecium (GC 4556) (Enterococcus sp.; Enterococcus faecium (GC 4556)): 2 µg/mL (≈ 1.43 µM)
MIC Enterococcus faecium (GC 4557) (Enterococcus sp.; Enterococcus faecium (GC 4557)): 4 µg/mL (≈ 2.85 µM)
MIC Enterococcus faecalis (ATCC 29212) (Enterococcus sp.; strain ATCC 29212): 2 µg/mL (≈ 1.43 µM)
MIC Enterococcus faecalis (GC 2242) (Enterococcus sp.; strain GC 2242): 2 µg/mL (≈ 1.43 µM)
MIC Enterococcus faecium (GC 2243) (Enterococcus sp.; strain GC 2243): 2 µg/mL (≈ 1.43 µM)
MIC Enterococcus faecalis (GC 2691) (Enterococcus sp.; strain GC 2691): 2 µg/mL (≈ 1.43 µM)
MIC Enterococcus faecalis (GC 3059) (Enterococcus sp.; strain GC 3059): 2 µg/mL (≈ 1.43 µM)
MIC Enterococcus faecalis (GC 4552) (Enterococcus sp.; strain GC 4552): 2 µg/mL (≈ 1.43 µM)
MIC Enterococcus faecalis (GC 4553) (Enterococcus sp.; strain GC 4553): 4 µg/mL (≈ 2.85 µM)
MIC Enterococcus faecalis (GC 4554) (Enterococcus sp.; strain GC 4554): 2 µg/mL (≈ 1.43 µM)
MIC Enterococcus faecium (GC 4556) (Enterococcus sp.; strain GC 4556): 2 µg/mL (≈ 1.43 µM)
MIC Enterococcus faecium (GC 4557) (Enterococcus sp.; strain GC 4557): 4 µg/mL (≈ 2.85 µM)
MIC Enterococcus avium (GC 4558) (Enterococcus sp.; strain GC 4558): 2 µg/mL (≈ 1.43 µM)
MIC Enterococcus faecalis (GC 6189) (Enterococcus sp.; strain GC 6189): 2 µg/mL (≈ 1.43 µM)
MIC Escherichia coli (ATCC 25922) (Escherichia coli; strain ATCC 25922): 32 µg/mL (≈ 22.8 µM)
MIC Escherichia coli (GC 4559) (Escherichia coli; strain GC 4559): 32 µg/mL (≈ 22.8 µM)
MIC Escherichia coli (GC 4560) (Escherichia coli; strain GC 4560): 2 µg/mL (≈ 1.43 µM)
MIC Staphylococcus aureus (ATCC 29213) (Staphylococcus sp.): 2 µg/mL (≈ 1.43 µM)
MIC Staphylococcus aureus (GC 1131) (Staphylococcus sp.): 2 µg/mL (≈ 1.43 µM)
MIC Staphylococcus aureus (GC 3051) (Staphylococcus sp.): 2 µg/mL (≈ 1.43 µM)
MIC Staphylococcus aureus (GC 3053) (Staphylococcus sp.): 2 µg/mL (≈ 1.43 µM)
MIC Staphylococcus aureus (GC 4541) (Staphylococcus sp.): 2 µg/mL (≈ 1.43 µM)
MIC Staphylococcus aureus (GC 4542) (Staphylococcus sp.): 2 µg/mL (≈ 1.43 µM)
MIC Staphylococcus aureus (GC 4544) (Staphylococcus sp.): 1 µg/mL (≈ 0.713 µM)
MIC Staphylococcus aureus (GC 4545) (Staphylococcus sp.): 2 µg/mL (≈ 1.43 µM)
MIC Staphylococcus aureus (GC 1131) (Staphylococcus sp.; inoculum 5×10^5 CFU/mL, strain GC 1131): 2 µg/mL (≈ 1.43 µM)
MIC Staphylococcus aureus (ATCC 29213) (Staphylococcus sp.; strain ATCC 29213): 2 µg/mL (≈ 1.43 µM)
MIC Staphylococcus aureus (GC 3051) (Staphylococcus sp.; strain GC 3051): 2 µg/mL (≈ 1.43 µM)
MIC Staphylococcus aureus (GC 3053) (Staphylococcus sp.; strain GC 3053): 2 µg/mL (≈ 1.43 µM)
MIC Staphylococcus aureus (GC 4541) (Staphylococcus sp.; strain GC 4541): 2 µg/mL (≈ 1.43 µM)
MIC Staphylococcus aureus (GC 4542) (Staphylococcus sp.; strain GC 4542): 2 µg/mL (≈ 1.43 µM)
MIC Staphylococcus aureus-SMITH (GC 4543) (Staphylococcus sp.; strain GC 4543): 2 µg/mL (≈ 1.43 µM)
MIC Staphylococcus aureus (GC 4544) (Staphylococcus sp.; strain GC 4544): 1 µg/mL (≈ 0.713 µM)
MIC Staphylococcus aureus (GC 4545) (Staphylococcus sp.; strain GC 4545): 2 µg/mL (≈ 1.43 µM)
MIC Staphylococcus haemolyticus (GC 4546) (Staphylococcus sp.; strain GC 4546): 2 µg/mL (≈ 1.43 µM)
MIC Coagulase Negative Staphylococcus (GC 4547) (Staphylococcus sp.; strain GC 4547): 2 µg/mL (≈ 1.43 µM)
MIC Coagulase Negative Staphylococcus (GC 4548) (Staphylococcus sp.; strain GC 4548): 1 µg/mL (≈ 0.713 µM)
MIC Coagulase Negative Staphylococcus (GC 4549) (Staphylococcus sp.; strain GC 4549): 1 µg/mL (≈ 0.713 µM)
MIC Coagulase Negative Staphylococcus (GC 4551) (Staphylococcus sp.; strain GC 4551): 2 µg/mL (≈ 1.43 µM)
MIC Coagulase Negative Staphylococcus (GC 6257) (Staphylococcus sp.; strain GC 6257): 1 µg/mL (≈ 0.713 µM)
MIC Staphylococcus aureus-SMITH (GC 4543) (Staphylococcus sp.; strain SMITH GC 4543): 2 µg/mL (≈ 1.43 µM)
MIC Streptococcus agalactiae (GC 4564) (Streptococcus sp.; Streptococcus agalactiae (GC 4564)): 0.12 µg/mL (≈ 0.0855 µM)
MIC Streptococcus pneumoniae (ATCC 6301) (Streptococcus sp.; Streptococcus pneumoniae (ATCC 6301)): <0.06 µg/mL
MIC Streptococcus pneumoniae (GC 1894) (Streptococcus sp.; Streptococcus pneumoniae (GC 1894)): <0.06 µg/mL
MIC Streptococcus pneumoniae (GC 4565) (Streptococcus sp.; Streptococcus pneumoniae (GC 4565)): 0.12 µg/mL (≈ 0.0855 µM)
MIC Streptococcus pyogenes (GC 4563) (Streptococcus sp.; Streptococcus pyogenes (GC 4563)): <0.06 µg/mL
MIC Streptococcus pneumoniae (ATCC 6301) (Streptococcus sp.; strain ATCC 6301): <0.06 µg/mL
MIC Streptococcus pneumoniae (GC 1894) (Streptococcus sp.; strain GC 1894): <0.06 µg/mL
MIC Streptococcus pyogenes (GC 4563) (Streptococcus sp.; strain GC 4563): <0.06 µg/mL
MIC Streptococcus agalactiae (GC 4564) (Streptococcus sp.; strain GC 4564): 0.12 µg/mL (≈ 0.0855 µM)
MIC Streptococcus pneumoniae (GC 4565) (Streptococcus sp.; strain GC 4565): 0.12 µg/mL (≈ 0.0855 µM)

Reference: patent publication US6914045B2, “Glycopeptide antibiotics” (Wyeth Holdings Corporation, priority 2001, dated 2005)
